Source: patent EP4293034A1, “A NOVEL ACYLATED DERIVATE OF PHLORETIN AND ITS USE AS ANTIOXIDANT” (Consejo Superior de Investigaciones Científicas (CSIC), priority 2022, dated 2023)
≈ marks a conversion by molar mass, not a printed value. Where two headings read alike, the source gives them in different places. Marks after values point to notes of the source that are not given here.

Key:
[1] = (*) data from Gonzalez-Alfonso et al, 2021, cited from earlier work; for EC50: EC50 ± SD, read-out: DPPH assay EC50; for DPPH assay TEAC: TEAC ± SD
[2] = (*) data from Gonzalez-Alfonso et al, 2021, cited from earlier work; for EC50: EC50 ± SD, read-out: ABTS assay EC50; for ABTS assay TEAC: TEAC ± SD
[3] = water, 25 °C; (*) data from Gonzalez-Alfonso et al, 2021; cited from earlier work
[4] = previously reported, Gonzalez-Alfonso et al, 2021; cited from earlier work
[5] = Antioxidant activity, ABTS assay; assay type: biochemical; details: n = 3
Experimental: (§1) The capacity of the synthesized ester to reduce 2,2-diphenyl-1-picrylhydrazyl (DPPH) and the radical cation 2,2-azino-bis(3-ethylbenzothiazoline-6-sulfonic acid) diammonium salt (ABTS^·+) was assayed. (R)-Trolox was employed as antioxidant reference. Standard solutions with a concentration between 0 and 1000 µM for DPPH assay, and between 0 and 500 µM for ABTS assay, were prepared.

[6] = In vitro percutaneous absorption on Franz static diffusion cells; assay type: in vitro ADME; details: pig skin model, 24 h exposure, Figure 5
Experimental: The study was carried out in vitro with pig biopsies placed on Franz static diffusion cells (3 mL, 1.86 cm^2 of exposed area, diameter: […], Lara-Spiral, Courtenon, France) in order to determine the distribution of active compound (API) at the different skin layers, after an exposure time of 24 hours. The pig skin, provided by the Department of Cardiology of the Hospital Clinic (Barcelona, Spain), is considered morphologically and functionally equivalent to human skin for percutaneous absorption studies. Ultra-pure water was employed as receptor fluid, and cells were placed in a thermostated water bath (32 °C) containing a magnetic stirring device to obtain the skin surface temperature at 32 ± 1 °C. The integrity of the skin samples was evaluated by measuring the transepidermal water loss (TEWL) with Tewameter TM300 (Courage & Khazaka, Cologne, Germany) considering correct TEWL values under 15 g m^-2 h^-1. […] The different samples to be analyzed (W, SC, E, D and FR) were extracted and/or diluted in methanol (Merck, Darmstadt, Germany). The phloretin, its corresponding monoglucoside and acylated monoglucoside concentrations were analyzed by HPLC, as previously described. […] The results are shown as mean values (expressed as µg/cm2) ± standard deviations. […]

[7] = Antioxidant activity, DPPH assay; assay type: biochemical; details: n = 3
Experimental: as §1

Aqueous solubility = assay type: physicochemical; details: water, 25 °C, 72 h
Experimental: The compound was incubated at 25 °C in water (saturated conditions) during 3 days under orbital stirring (1000 rpm). Then, the sample was centrifuged. A volume of 200 µL of the supernatant solution was analysed by triplicate, in a 96-well plate, using a phloretin calibration curve in methanol (0-200 µg/mL). The absorbance was measured by UV spectrophotometry (Tecan Infinite M200) at 297 nm.

[8] = TEAC ± SD, calculated from EC50 of the acyl derivative and EC50 of (R)-Trolox

EC50 ([5]; EC50 ± SD) [µM] | percutaneous absorption, increase versus phloretin and its α-glucoside ([6]; listed as acyl-glucoside of phloretin) | percutaneous absorption, increase versus phloretin and its α-glucoside ([6]; listed as acylglucoside of phloretin) [fold] | EC50 ([7]; EC50 ± SD) [µM] | Solubility (Aqueous solubility) [µg/mL] | SMILES | EC50 [1] [µM] | DPPH assay TEAC [1] | EC50 [2] [µM] | ABTS assay TEAC [2] | Solubility [3] | skin absorption (in words) [4] | ABTS assay TEAC [5, 8] | DPPH assay TEAC [7, 8]
 |  |  |  |  | O=C(CCc1ccc(O)cc1)c1c(O)cc(O[C@H]2O[C@H](CO)[C@@H](O)[C@H](O)[C@H]2O)cc1O [Phloretin 4'-O-α-D-(glucopyranoside), Phloretin 4'-O-α-D-Glucopyranoside] | 285 ± 20 | 8.1 ± 0.6 | 16.9 ± 0.5 | 0.64 ± 0.06 |  |  |  | 
 |  |  |  |  | O=C(CCc1ccc(O)cc1)c1c(O)cc(O)cc1O [Phloretin, 2',4',6'-trihydroxy-3-(4-hydroxyphenyl)-propiophenone] | 217 ± 14 | 6.2 ± 0.4 | 11.7 ± 0.6 | 0.45 ± 0.04 | 23.2 ± 0.3* mg/L | the same absorption pattern, without significant differences |  | 
14.7 ± 0.7 | approx. 3 fold | 3 | 439 ± 13 | 6.0 ± 0.2 (≈ 9.7 µM) | CCCCCCCCCCCC(=O)OC[C@H]1O[C@H](Oc2cc(O)c(C(=O)CCc3ccc(O)cc3)c(O)c2)[C@H](O)[C@@H](O)[C@@H]1O [phloretin 4'-O-(6-O-lauroyl)-α-D-glucopyranoside] |  |  |  |  |  |  | 0.47 ± 0.04 | 11.4 ± 0.8
